Values quoted from earlier work as cited in US20100092463A1, “Method for treating or preventing osteoporosis by reducing follicle stimulating hormone to cyclic physiological levels in a mammalian subject” (Searete LLC, a limited liability corporation of the State …, priority 2008, published 2010).
Where a SMILES comes first, the peptide text is derived from it. [ ]: non-standard residue; d: D form. d(hArg(Et2)) = CCN=C(NCC)NCCCC[C@@H](N)C(=O)O; hArg(Et2) = CCN=C(NCC)NCCCC[C@H](N)C(=O)O; dPhe(4-Cl) = N[C@H](Cc1ccc(Cl)cc1)C(=O)O; d2Nal = N[C@H](Cc1ccc2ccccc2c1)C(=O)O; dCit = NC(=O)NCCC[C@@H](N)C(=O)O; d3Pal = N[C@H](Cc1cccnc1)C(=O)O

Settings: most common adverse effects being nausea and headache

CC(=O)N[C@H](Cc1ccc2ccccc2c1)C(=O)N[C@H](Cc1ccc(Cl)cc1)C(=O)N[C@H](Cc1cccnc1)C(=O)N[C@@H](CO)C(=O)N[C@@H](Cc1ccc(O)cc1)C(=O)N[C@H](CCCNC(N)=O)C(=O)N[C@@H](CC(C)C)C(=O)N[C@@H](CCCNC(=N)N)C(=O)N1CCC[C@H]1C(=O)N[C@H](C)C(N)=O [cetrorelix] (Ac-[d2Nal][dPhe(4-Cl)][d3Pal]SY[dCit]LRP[dA]-NH2)
tolerability: well tolerated

CCN=C(NCC)NCCCC[C@H](NC(=O)[C@H](CC(C)C)NC(=O)[C@@H](CCCCNC(=NCC)NCC)NC(=O)[C@H](Cc1ccc(O)cc1)NC(=O)[C@H](CO)NC(=O)[C@@H](Cc1cccnc1)NC(=O)[C@@H](Cc1ccc(Cl)cc1)NC(=O)[C@@H](Cc1ccc2ccccc2c1)NC(C)=O)C(=O)N1CCC[C@H]1C(=O)N[C@H](C)C(N)=O [ganirelix] (Ac-[d2Nal][dPhe(4-Cl)][d3Pal]SY[d(hArg(Et2))]L[hArg(Et2)]P[dA]-NH2)
tolerability: well tolerated
